Source: patent US4474748A, “Medicaments potentiated with phenyl alkanols” (priority 1981, dated 1984)
Where two headings read alike, the source gives them in different places.

How the values were obtained:
[1] = test system: Staphylococcus aureus; assay: Topical staphylococcal infection in rats; assay type: in vivo, Staphylococcus aureus in rats; settings: for Abscess formation (share of animals): topical staphylococcal infection
From the text: In tests and operative techniques carried out according to the procedure set forth in F. Goldschmidt, Reproducible Topical Staphylococcal Infection in Rats, Applied Microbiology, 23, No. 1, p.

[2] = test system: P. aeruginosa; assay: Bactericidal (killing) efficacy in the presence of citrated human blood, P. aeruginosa; assay type: cell-based; settings: Table I, 40% ethanol
Description: (§1) A series of the following four solutions was prepared in accordance with the foregoing procedure: […]

[3] = test system: S. aureus; assay: Bactericidal (killing) efficacy in the presence of citrated human blood, S. aureus; assay type: cell-based; settings: Table II
Description: as §1

[4] = test system: C. acnes; assay: Bactericidal (killing) efficacy in the presence of citrated human blood, C. acnes; assay type: cell-based; settings: Table II
From the text: In a similar manner, additional antimicrobial compositions of this invention have been tested and a summary of the test results appears in Table II.

[5] = test system: intact human skin; settings: alcohol potentiators 10%
Description: To illustrate the enhanced penetration of the topical compositions of the invention, the following formulation was employed to prepare compositions which were then tested in a standardized skin blanching test wherein the degree of blanching corresponds to the degree of penetration.

[6] = test system: C. albicans; assay: Killing efficacy in the presence of citrated human blood, C. albicans; assay type: cell-based
Description: as §1

[7] = preparation containing 20% benzocaine; intact skin; cited from earlier work
[8] = stratum corneum; previous studies; cited from earlier work

CCC(O)C1CCCCC1 (stereo not drawn) [1-Cyclohexyl-1-propanol, 1-cyclohexyl-1-propanol]
Recoverable Staphylococcus aureus ([1]; 3.0%, alone, rats): ≥ 10^6 cells per gram of excised body wall
Abscess formation (share of animals) ([1]; rats): 100%

CCCC(C)C(C)(C)O (stereo not drawn) [2,3-Dimethyl-2-hexanol, 2,3-dimethyl-2-hexanol]
Number of Cells Survived ([2]; contact time 1 minute): 8.5 × 10^6 cells
Number of Cells Survived ([2]; contact time 10 minutes): 7.6 × 10^6 cells
Number of Cells Survived ([2]; contact time 30 minutes): 5.1 × 10^6 cells

OCCC1CCCCC1 [2-Cyclohexylethanol, 2-cyclohexylethanol]
Number of Cells Survived ([2]; contact time 1 minute): 1.1 × 10^6 cells
Number of Cells Survived ([2]; contact time 10 minutes): 7.8 × 10^4 cells
Number of Cells Survived ([2]; contact time 30 minutes): 4.8 × 10^4 cells

O=C(Nc1ccc(Cl)cc1)Nc1ccc(Cl)c(Cl)c1 [3,4,4'-Chlorocarbanilide]
Number of Cells Survived ([3]; 0.05%, 1 minute): 6.1 × 10^7 cells
Number of Cells Survived ([3]; 0.05%, 10 minutes): 5.2 × 10^7 cells
Number of Cells Survived ([3]; 0.05%, 30 minutes): 3.0 × 10^7 cells

O=c1[nH]c(=O)n([C@H]2C[C@H](O)[C@@H](CO)O2)cc1I [5-iodo-2-deoxyuridine]
Number of Cells Survived ([3]; 0.2%, 1 minute): 30 × 10^7 cells
Number of Cells Survived ([3]; 0.2%, 10 minutes): 30 × 10^7 cells
Number of Cells Survived ([3]; 0.2%, 30 minutes): 30 × 10^7 cells

CCCCCCCCCCCCC[N+](C)(C)Cc1ccccc1 [Benzalkonium chloride]
Number of Cells Survived ([3]; 0.05%, 1 minute): 9.0 × 10^5 cells
Number of Cells Survived ([3]; 0.05%, 10 minutes): 1.0 × 10^5 cells
Number of Cells Survived ([3]; 0.05%, 30 minutes): 2.9 × 10^3 cells

N[C@@H]1CON=C1O [Cycloserine]
Number of Cells Survived ([3]; 0.0125%, 1 minute): 60 × 10^7 cells
Number of Cells Survived ([3]; 0.0125%, 10 minutes): 60 × 10^7 cells
Number of Cells Survived ([3]; 0.0125%, 30 minutes): 60 × 10^7 cells

Cc1cc(N)c2ccccc2[n+]1CCCCCCCCCC[n+]1c(C)cc(N)c2ccccc21 [Dequalinium chloride]
Number of Cells Survived ([4]; 0.00125%, 1 minute): 26 × 10^5 cells
Number of Cells Survived ([4]; 0.00125%, 10 minutes): 14 × 10^2 cells
Number of Cells Survived ([4]; 0.00125%, 30 minutes): 30 cells

CCCCCCCCCCCC[N+](C)(C)CCOc1ccccc1 [Domiphen bromide]
Animals from which S. aureus could be recovered ([1]; 10^5 or more cells per gram of excised body wall): 82.3%
Abscess formation (share of animals) ([1]; rats): 82.3%

CNC[C@H](O)c1ccc(O)c(O)c1 [Epinephrine (E)]
Skin blanching score (penetration of epinephrine) ([5]; 10 min after application): 0
Skin blanching score (penetration of epinephrine) ([5]; 20 min after application): 0-1
Skin blanching score (penetration of epinephrine) ([5]; 30 min after application): 0
Skin blanching score (penetration of epinephrine) ([5]; 40 min after application): 0
Skin blanching score (penetration of epinephrine) ([5]; 50 min after application): 0
Skin blanching score (penetration of epinephrine) ([5]; 60 min after application): 0

CC[C@H]1OC(=O)[C@H](C)[C@@H](O[C@H]2C[C@@](C)(OC)[C@@H](O)[C@H](C)O2)[C@H](C)[C@@H](O[C@@H]2O[C@H](C)C[C@H](N(C)C)[C@H]2O)[C@](C)(O)C[C@@H](C)C(=O)[C@H](C)[C@@H](O)[C@]1(C)O [Erythromycin]
Number of Cells Survived ([3]; 0.025%, 1 minute): 4.9 × 10^7 cells
Number of Cells Survived ([3]; 0.025%, 10 minutes): 4.6 × 10^7 cells
Number of Cells Survived ([3]; 0.025%, 30 minutes): 4.3 × 10^ 7 cells
Number of Cells Survived ([6]; Table II, 0.025%, 1 minute): 7.2 × 10^8 cells
Number of Cells Survived ([6]; Table II, 0.025%, 10 minutes): 7.1 × 10^8 cells
Number of Cells Survived ([6]; Table II, 0.025%, 30 minutes): 9.2 × 10^7 cells
Number of Cells Survived ([4]; 0.0125%, 1 minute): 22 × 10^5 cells
Number of Cells Survived ([4]; 0.0125%, 10 minutes): 21 × 10^5 cells
Number of Cells Survived ([4]; 0.0125%, 30 minutes): 18 × 10^5 cells

COC1=CC(=O)C[C@@H](C)[C@]12Oc1c(Cl)c(OC)cc(OC)c1C2=O [Griseofulvin]
Number of Cells Survived ([4]; 0.0125%, 1 minute): 94 × 10^5 cells
Number of Cells Survived ([4]; 0.0125%, 10 minutes): 99 × 10^5 cells
Number of Cells Survived ([4]; 0.0125%, 30 minutes): 92 × 10^5 cells

N=C(NCCCCCCNC(=N)NC(=N)Nc1ccc(Cl)cc1)NC(=N)Nc1ccc(Cl)cc1 [Hibitane]
Number of Cells Survived ([4]; 0.0125%, 1 minute): 45 × 10^6 cells
Number of Cells Survived ([4]; 0.0125%, 10 minutes): 51 × 10^5 cells
Number of Cells Survived ([4]; 0.0125%, 30 minutes): 0 cells

CO[C@H]1/C=C/O[C@@]2(C)Oc3c(C)c(O)c4c(O)c(c(/C=N/N5CCN(C)CC5)c(O)c4c3C2=O)NC(=O)/C(C)=C\C=C\[C@H](C)[C@H](O)[C@@H](C)[C@@H](O)[C@@H](C)[C@H](OC(C)=O)[C@@H]1C [Rifampicin]
Number of Cells Survived ([4]; 0.0125%, 1 minute): 17 × 10^6 cells
Number of Cells Survived ([4]; 0.0125%, 10 minutes): 17 × 10^6 cells
Number of Cells Survived ([4]; 0.0125%, 30 minutes): 13 × 10^6 cells

O=C(Nc1ccc(Br)cc1)c1cc(Br)cc(Br)c1O [Temasept IV, 3,4',5tribromosalicylanilide]
Number of Cells Survived ([3]; 0.05%, 1 minute): 4.2 × 10^8 cells
Number of Cells Survived ([3]; 0.05%, 10 minutes): 4.0 × 10^8 cells
Number of Cells Survived ([3]; 0.05%, 30 minutes): 1.2 × 10^8 cells

CN(C)C1C(=O)C(C(N)=O)=C(O)C2(O)C(=O)C3=C(O)c4c(O)cccc4C(C)(O)C3CC12 (stereo not drawn) [Tetracycline]
Number of Cells Survived ([3]; 0.05%, 1 minute): 4.2 × 10^8 cells
Number of Cells Survived ([3]; 0.05%, 10 minutes): 4.1 × 10^8 cells
Number of Cells Survived ([3]; 0.05%, 30 minutes): 3.8 × 10^7 cells
Number of Cells Survived ([6]; Table II, 0.05%, 1 minute): 4.3 × 10^7 cells
Number of Cells Survived ([6]; Table II, 0.05%, 10 minutes): 3.9 × 10^7 cells
Number of Cells Survived ([6]; Table II, 0.05%, 30 minutes): 3.6 × 10^7 cells

[O-][n+]1ccccc1[S-].[O-][n+]1ccccc1[S-].[Zn+2] [Zn--omadine]
Number of Cells Survived ([6]; Table I, contact time 1 minute, human blood, 40% ethanol): 9 × 10^8 cells
Number of Cells Survived ([6]; Table I, contact time 10 minutes, human blood, 40% ethanol): 8.0 × 10^8 cells
Number of Cells Survived ([6]; Table I, contact time 30 minutes, human blood, 40% ethanol): 7 × 10^8 cells

CCOC(=O)c1ccc(N)cc1 [benzocaine]
Surface anesthesia [7]: effective to cause surface anesthesia

C[S+](C)[O-] [dimethylsulfoxide (DMSO), dimethylsulfoxide]
Absorption of topically applied drugs [8]: can enhance the absorption of topically applied drugs through the stratum corneum
